We go through eight compounds from publication PMC10674299, “Discovery of Guanfacine as a Novel TAAR1 Agonist: A Combination Strategy through Molecular Modeling Studies and Biological Assays” (Pharmaceuticals, 2023).

The structures appear in SMILES notation. Like-named read-outs stand apart in the source and are kept apart here. Some results are limits rather than exact numbers.

Series [1] addresses α2-ADR. The arrangement: method as in PMID 22795332. The settings on record: cited from earlier work.
Series [2] concerns α2-ADR. The settings on record: cited from earlier work.
Series [3] concerns the target T1, hTAAR1 (Homo sapiens, UniProt Q96RJ0).
T1 construct: Plasmid containing the cDNA for hTAAR1 was a generous gift from Hoffman-La Roche; expressed in transfected cells; host or cells: HEK293T (ATCC CRL-11268), transient transfection with Lipofectamine 2000
T1 sequence (Q96RJ0 1-339): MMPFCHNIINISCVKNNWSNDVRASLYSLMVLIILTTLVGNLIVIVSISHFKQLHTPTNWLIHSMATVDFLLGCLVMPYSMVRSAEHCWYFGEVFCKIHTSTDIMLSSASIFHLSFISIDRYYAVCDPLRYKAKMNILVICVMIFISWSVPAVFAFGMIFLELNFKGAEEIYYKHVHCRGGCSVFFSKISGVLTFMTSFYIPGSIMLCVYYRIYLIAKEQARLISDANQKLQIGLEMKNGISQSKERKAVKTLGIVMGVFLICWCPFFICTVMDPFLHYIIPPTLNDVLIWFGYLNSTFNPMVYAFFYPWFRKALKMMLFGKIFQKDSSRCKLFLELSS
Briefly: BRET-based cAMP assay in HEK293 cells transfected with hTAAR1 and cAMP biosensor. Type of series: cell-based. Particulars: for EC50: HEK293, dose-response 1 nM to 10 μM, IBMX 200 µM. Here is the method: hTAAR1 is coupled to stimulatory G proteins and thus its activation induces an increase in the cAMP production. We measured the potential activity of guanfacine and guanabenz by using a BRET-based assay in which HEK293 cells were transfected with hTAAR1, or the empty vector as control, and the cAMP BRET biosensor. […] A dose-response experiment was performed using concentrations ranging from 1 nM to 10 μM to calculate the corresponding EC50 and the Emax values.
Human embryonic kidney 293 cells (HEK293T; ATCC CRL-11268) were maintained in Dulbecco’s Modified Eagle’s medium (DMEM; Gibco-Thermo Fisher Scientific, New York, NY, USA) supplemented with 10% (v/v) of FBS, 2 mM l-glutamine, and 0.05 mg/mL of gentamicin (both from Gibco) at 37 °C in a humidified atmosphere at 95% air and 5% CO2. Transient transfections were performed 24 h after cell seeding using the Lipofectamine reagent 2000 protocol (Invitrogen-Thermo Fisher Scientific, Carlsbad, USA). Then, 5 µg of hTAAR1 and 4 µg of cAMP biosensor protein (EPAC) encoding plasmids (the latter based on pcDNA3 core vector [59]) for each milliliter of transfection mix were used. For the BRET experiments, the cells were plated 6 h after transfection in poly-D-lysine coated 96-well white opaque microplates (Corning, New York, NY, USA) at a density of 7 × 10^4 cells per well in phenol red free Minimum Essential Medium (MEM; Gibco-Thermo Fisher Scientific, New York, NY, USA) containing 2% of FBS, 10 mM HEPES buffering agent, and 2 mM L-glutamine (all from Gibco-Thermo Fisher Scientific, New York, NY, USA). The cells were then cultured for an additional 24 h.
The BRET experiment was conducted as already described. Briefly, for time course experiments, the plate was read immediately after the addition of the agonist and for approximately 20 min. All the experiments were conducted in the presence of the phosphodiesterase inhibitor 3-isobutyl-1-methylxanthine (IBMX; Sigma-Aldrich, St. Louis, MO, USA) at the final concentration of 200 µM. Readings were collected using a Tecan Infinite instrument that allows the sequential integration of the signals detected in the 465 to 505 nm and 515 to 555 nm windows using filters with the appropriate band pass and by using iControl software. The acceptor/donor ratio was then calculated.
All the compounds were dissolved in dimethyl sulfoxide (DMSO; Sigma-Aldrich, St. Louis, MO, USA) and tested at the final concentration of 10 μM. Beta-phenylethylamine (Sigma-Aldrich, St. Louis, MO, USA) at the final concentration of 10 µM was applied as a positive control. To confirm specificity of positive responses, parallel screening on cells not transfected with the TAAR1-encoding vector was carried out. For compounds considered active, separate dose-response experiments were performed in order to calculate the EC50 values. Curves were fitted using a non-linear regression and one site specific binding with GraphPad Prism 6 (GraphPad Software). Data are representative of 4–5 independent experiments and are expressed as means, SD < 10%.

Another series has as its system DAT-KO rats. Briefly: Locomotor activity of DAT-KO rats (Actometer). Type of series: in vivo, rat. Particulars: 0.1 and 0.3 mg/kg i/p, 60 min, vs vehicle p < 0.001 and p = 0.02 (Bonferroni). Here is the method:
To evaluate the in vivo pharmacological effect of guanfacine, we used a rodent model of hyperdopaminergia, the dopamine transporter knockout (DAT-KO) rats, that also mimics some phenotypic aspect of ADHD and has certain predictive validity for the search of novel pharmacological agents to control hyperactivity and cognitive processes in patients with this disease. […] Thus, the effect of guanfacine on hyperactivity of DAT-KO rats was evaluated.
Results are presented on Figure 15. […] We used the mixed ANOVA (the within-subject factors ‘5-min bin’ (1–12) and ‘dose’ (0.0; 0.1; 0.3 mg/kg), the between-subject factor ‘mutation’ (‘WT’; ‘KO’); the random factor ‘rat #’) on rank-transformed data to analyze results. […] Locomotor activity of the rats decreased from the 1st to the 12th bin (the effect of factor ‘5-min bin’: F(11,51) = 2.51, p = 0.01). The lack of DAT was associated with an increased level of locomotor activity (the effect of factor ‘mutation’: F(1,11) = 222.94, p < 0.001). […] We used Bonferroni’s test for post hoc comparisons. […]
The study was performed in the apparatus ‘Actometer’ described in detail before. […] Following the injection, the locomotor activity of the animals was recorded for an additional 60 min divided in 12 intervals of 5-min each. […]

On the set-up of series [4]: method as in PMID 12351753. Particulars: animal studies, cited from earlier work.
Series [5] has as its target T1, hTAAR1. Particulars: S18616; cited from earlier work.
In series [6] the test system is mTAAR1. The arrangement: method as in PMID 19725810. Particulars: cited from earlier work.
The target of a further series is chimeric receptor cTAAR1. The arrangement: method as in PMID 19725810. Particulars: cited from earlier work.
In series [7] the test system is mTAAR1. On the set-up: method as in doi:10.1039/C5MD00400D. Particulars: BRET cAMP reporter; cited from earlier work.

Consider `CC(C)N(Cc1c[nH]cn1)c1ccc(Cl)cc1` [compound 24], for which the Ki at α2-ADR [1] is 840 nM.

For `CCN(Cc1ncc[nH]1)c1ccccc1` [compound 51], on α2-ADR [1], the Ki was 254 to 497 nM.

With `N=C(N)NC(=O)Cc1c(Cl)cccc1Cl` [guanfacine], the results for the EC50 in the series with α2-ADR [2] (guanfacine) and on hTAAR1 [3] (cAMP BRET) were about 25.1 nM and 20 nM, respectively. The “type of agonism at hTAAR1” value on hTAAR1 [3] (cAMP BRET, HEK293) is given as “full agonists”. Further, the Emax on hTAAR1 [3] (cAMP BRET, HEK293, read-out: hTAAR1 Emax) is over 85%. For the same compound, the “effect on locomotor activity” value in the series with DAT-KO rats was “decreased locomotor activity”. Moreover, the adverse effects entry in [4] (higher doses (10 mg/Kg)) was “provoked more relevant adverse effects”. In [4] (low doses (0.5–1 mg/Kg)), the “effect on working memory” value is “improved working memory without reducing blood pressure or causing significant sedation”.

As to `NC1=NC2(CCc3cccc(Cl)c3C2)CO1` (stereo not drawn) [S18616], the EC50 with α2-ADR [2] (S18616) was 0.7 nM; at hTAAR1 [5], 15 nM.

With `c1ccc(CC2=NCCN2)cc1` [5a], the Ki on α2-ADR [1] is 98.4 nM.

Turning to `c1ccc(Cc2ncc[nH]2)cc1` [6a], the Ki at α2-ADR [1] is 1880 nM.

Regarding `N=C(N)N/N=C/c1c(Cl)cccc1Cl` [guanabenz], the EC50 in the series with α2-ADR [2] (guanabenz) was about 16.3 nM; with mTAAR1 [6], 7 nM; at chimeric receptor cTAAR1 (chimeric human/mouse receptor), 25 nM; in the series on mTAAR1 [7] it was 90 nM; at hTAAR1 [3] (cAMP BRET) it was 10 nM. Besides, the “type of agonism at mTAAR1” value in the series on mTAAR1 [6] is listed as “partial agonist”; in the series with mTAAR1 [7], “full agonist”. Further, the “type of agonism at cTAAR1” value in the series with chimeric receptor cTAAR1 is on record as “partial agonist”. In addition, at hTAAR1 [3] (HEK293, read-out: hTAAR1 Emax), the maximal response (Emax) was over 85%. The “type of agonism at hTAAR1” value on hTAAR1 [3] (cAMP BRET, HEK293) is on record as “full agonists”.

`NCCc1ccccc1` [β-PEA, β-phenylethylamine]: the EC50 on hTAAR1 [3] (cAMP BRET) came out at 202 nM.
